In patent US8580829B2 (Boehringer Ingelheim International GmbH, priority 2010, dated 2013):
pIC50: −log10 of the molar value. Like-named read-outs stand apart in the source and are kept apart here.

Columns and labels:
[1] = tested on: synthesis of LTB4 in human whole blood; assay: human whole blood LTB4 production inhibition assay; type: cell-based; settings: heparinized human whole blood, calcimycin 20 μM, read-out: hWB LTB4 IC50
Outline: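 Heparinized human whole blood preincubated with compound 15 min at 37 °C, then stimulated with calcimycin (20 μM final) for 30 min at 37 °C. Plasma LTB4 measured after low-speed centrifugation by antibody-based homogeneous time-resolved fluorescence.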

[2] = target: T1, recombinant human FLAP protein (Homo sapiens, UniProt P20292); assay: FLAP binding assay (Scintillation Proximity Assay, displacement of [125I]L-691,831); settings: recombinant human FLAP membranes, [125I]L-691,831 probe; read-out: FLAP SPA IC50
T1 construct: made in house; host or cells: Sf9 insect cells (100,000 x g membrane fraction)
T1 sequence (P20292 1-161): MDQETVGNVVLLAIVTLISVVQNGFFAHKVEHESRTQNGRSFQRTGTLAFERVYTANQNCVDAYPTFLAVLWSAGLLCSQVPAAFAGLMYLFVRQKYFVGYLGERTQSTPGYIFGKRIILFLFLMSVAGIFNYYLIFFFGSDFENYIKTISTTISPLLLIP
Outline: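 WGA scintillation proximity beads were stirred 1 h with 5 μg of FLAP-containing membrane protein. The membranes came from baculovirus Sf9 cells, Dounce-lysed and spun to a 100,000×g pellet in buffer at pH 7.5.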

Row | SMILES | pIC50 ([1]; Homo sapiens) | pIC50 [2] | pIC50 [1]
1 | CC(C)(O)CNc1cnc(-c2nc(C3(c4ccc(-c5cnc(N)nc5)cc4)CCC3)no2)cn1 [Example 120, 1-[5-(3-{1-[4-(2-Amino-pyrimidin-5-yl)-phenyl]-cyclobutyl}-1,2,4-oxadiazol-5-yl)-pyrazin-2-ylamino]-2-methyl-propan-2-ol] | 6.13 | 8.04 | 
2 | CCOC(=O)CNc1cnc(-c2nc(C3(c4ccc(-c5cnc(N)nc5)cc4)CCC3)no2)cn1 [Example 199, [5-(3-{1-[4-(2-Amino-pyrimidin-5-yl)-phenyl]-cyclobutyl}-1,2,4-oxadiazol-5-yl)-pyrazin-2-ylamino]-acetic acid ethyl ester] | 7.38 | 9.00 | 
3 | CN(C(=O)Cn1cc(-c2nc(C3(c4ccc(-c5cnc(N)nc5)cc4)CCC3)no2)cn1)C1CCCOC1 (stereo not shown) [Example 247, 2-[4-(3-{1-[4-(2-Amino-pyrimidin-5-yl)-phenyl]-cyclobutyl}-[1,2,4]oxadiazol-5-yl)-pyrazol-1-yl]-N-methyl-N-(tetrahydro-pyran-3-yl)-acetamide] | 7.06 | 8.09 | 
4 | Nc1ncc(-c2ccc(C3(c4noc(-c5cccc(Cl)c5)n4)CCC3)cc2)cn1 [Example 45, 5-(4-{1-[5-(3-Chloro-phenyl)-1,2,4-oxadiazol-3-yl]-cyclobutyl}-phenyl)-pyrimidin-2-ylamine] | 6.02 | 8.10 | 
5 | Cn1cc(-c2nc(C3(c4ccc(-c5cnc6[nH]ccc6c5)cc4)CCC3)no2)cn1 [Example 273, 5-(4-{1-[5-(1-Methyl-1H-pyrazol-4-yl)-[1,2,4]oxadiazol-3-yl]-cyclobutyl}-phenyl)-1H-pyrrolo[2,3-b]pyridine] | 7.10 | 8.41 | 
6 | Cn1cc(-c2nc(C3(c4ccc(-c5ccc(N)c(C#N)c5)cc4)CCC3)no2)cn1 [Example 260] | 5.70 | 7.12 | 
7 | CCN(C)C(=O)Cn1cc(-c2nc(C3(c4ccc(-c5cnc(N)nc5)cc4)CCC3)no2)cn1 [Example 206, 2-[4-(3-{1-[4-(2-Amino-pyrimidin-5-yl)-phenyl]-cyclobutyl}-[1,2,4]oxadiazol-5-yl)-pyrazol-1-yl]-N-ethyl-N-methyl-acetamide] |  | 8.37 | 7.42
8 | CN(C)C(=O)Cn1cccc(-c2nc(C3(c4ccc(-c5cnc(N)nc5)cc4)CCC3)no2)c1=O [Example 119, 2-[3-(3-{1-[4-(2-Amino-pyrimidin-5-yl)-phenyl]-cyclobutyl}-1,2,4-oxadiazol-5-yl)-2-oxo-2H-pyridin-1-yl]-N,N-dimethyl-acetamide] | 6.10 | 7.40 | 
9 | N#CC1CCN(CCn2cc(-c3nc(C4(c5ccc(-c6cnc(N)nc6)cc5)CCC4)no3)cn2)CC1 [Example 246, 1-{2-[4-(3-{1-[4-(2-Amino-pyrimidin-5-yl)-phenyl]-cyclobutyl}-[1,2,4]oxadiazol-5-yl)-pyrazol-1-yl]-ethyl}-piperidine-4-carbonitrile] | 7.10 | 8.09 | 
10 | COC1CCN(C(=O)Cn2cc(-c3nc(C4(c5ccc(-c6cnc(N)nc6)cc5)CCC4)no3)cn2)CC1 [Example 234, 2-[4-(3-{1-[4-(2-Amino-pyrimidin-5-yl)-phenyl]-cyclobutyl}-[1,2,4]oxadiazol-5-yl)-pyrazol-1-yl]-1-(4-methoxy-piperidin-1-yl)-ethanone] | 7.09 | 8.46 | 
11 | Nc1ncc(-c2ccc(C3(c4noc(-c5ccc(NCCN6CCOCC6)nn5)n4)CCC3)cc2)cn1 [Example 115, [6-(3-{1-[4-(2-Amino-pyrimidin-5-yl)-phenyl]-cyclobutyl}-1,2,4-oxadiazol-5-yl)-pyridazin-3-yl]-(2-morpholin-4-yl-ethyl)-amine] | 6.85 | 8.48 | 
12 | Nc1ncc(-c2ccc(C3(c4noc(-c5ccc(C(=O)N6CCC(F)(F)CC6)nc5)n4)CCC3)cc2)cn1 [Example 59, [5-(3-{1-[4-(2-amino-pyrimidin-5-yl)-phenyl]-cyclobutyl}-1,2,4-oxadiazol-5-yl)-pyridin-2-yl]-(4,4-difluoro-piperidin-1-yl)-methanone] | 6.89 | 8.29 | 
13 | CN(C)CCN(C)c1cnc(-c2nc(C3(c4ccc(-c5cnc(N)nc5)cc4)CCC3)no2)cn1 [Example 271, N-[5-(3-{1-[4-(2-Amino-pyrimidin-5-yl)-phenyl]-cyclobutyl}-[1,2,4]oxadiazol-5-yl)-pyrazin-2-yl]-N,N′,N′-trimethyl-ethane-1,2-diamine] | 7.36 | 8.28 | 
14 | Nc1ncc(-c2ccc(C3(c4noc(-c5ccc(=O)[nH]c5)n4)CCC3)cc2)cn1 [Example 91, 5-(3-{1-[4-(2-Amino-pyrimidin-5-yl)-phenyl]-cyclobutyl}-1,2,4-oxadiazol-5-yl)-1H-pyridin-2-one] | 6.82 | 8.43 | 
15 | Nc1ncc(-c2ccc(C3(c4noc(-c5cnc(Cl)cn5)n4)CCC3)cc2)cn1 [Example 187, 5-(4-{1-[5-(5-chloro-pyrazin-2-yl)-1,2,4-oxadiazol-3-yl]-cyclobutyl}-phenyl)-pyrimidin-2-ylamine] | 5.47 | 8.08 | 

The remaining lines, values ahead:

Row | pIC50 ([1]; Homo sapiens) | pIC50 [2] | pIC50 [1] | SMILES
16 | 6.85 | 8.54 |  | Nc1ncc(-c2ccc(C3(c4noc(-c5cnc(N6CCC[C@@H]6CO)cn5)n4)CCC3)cc2)cn1 [Example 195, {(R)-1-[5-(3-{1-[4-(2-Amino-pyrimidin-5-yl)-phenyl]-cyclobutyl}-1,2,4-oxadiazol-5-yl)-pyrazin-2-yl]-pyrrolidin-2-yl}-methanol]
17 | 6.85 | 8.59 |  | Cc1cnc(-c2nc(C3(c4ccc(-c5cnc(N)nc5)cc4)CCC3)no2)cn1 [Example 22, 5-(4-{1-[5-(5-Methyl-pyrazin-2-yl)-1,2,4-oxadiazol-3-yl]-cyclobutyl}-phenyl)-pyrimidin-2-ylamine]
18 | 5.89 | 8.52 |  | Cn1cc(-c2nc(C3(c4ccc(-c5cnc(N)nc5)cc4)CCC3)no2)ncc1=O [Example 31, 5-(3-{1-[4-(2-Amino-pyrimidin-5-yl)-phenyl]-cyclobutyl}-1,2,4-oxadiazol-5-yl)-1-methyl-1Hpyrazin-2-one]
19 | 6.70 | 7.44 |  | Nc1ncc(-c2ccc(C3(c4noc(N5CC[C@H](O)C5)n4)CCC3)cc2)cn1 [Example 287, (S)-1-(3-{1-[4-(2-Amino-pyrimidin-5-yl)-phenyl]-cyclobutyl}-[1,2,4]oxadiazol-5-yl)-pyrrolidin-3-ol]
20 | 6.07 | 8.18 |  | Cc1cc(-c2nc(C3(c4ccc(-c5cnc(N)nc5)cc4)CCC3)no2)n(C)n1 [Example 161, 5-(4-{1-[5-(2,5-Dimethyl-2H-pyrazol-3-yl)-1,2,4-oxadiazol-3-yl]-cyclobutyl}-phenyl)-pyrimidin-2-ylamine]
21 | 6.89 | 8.19 |  | CNC(=O)Cn1cc(-c2nc(C3(c4ccc(-c5cnc(N)nc5)cc4)CCC3)no2)cn1 [Example 81, 2-[4-(3-{1-[4-(2-Amino-pyrimidin-5-yl)-phenyl]-cyclobutyl}-1,2,4-oxadiazol-5-yl)-pyrazol-1-yl]-N-methyl-acetamide]
22 | 6.72 | 7.80 |  | Nc1ncc(-c2ccc(C3(c4noc(-c5cn(C6COC6)cn5)n4)CCC3)cc2)cn1 [Example 263, 5-(4-{1-[5-(1-Oxetan-3-yl-1H-imidazol-4-yl)-[1,2,4]oxadiazol-3-yl]-cyclobutyl}-phenyl)-pyrimidin-2-ylamine]
23 | 6.64 | 8.14 |  | Cn1cc(-c2nc(C3(c4ccc(-c5cnc(N)nc5)cc4)CCC3)no2)cnc1=O [Example 185, 5-(3-{1-[4-(2-Amino-pyrimidin-5-yl)-phenyl]-cyclobutyl}-1,2,4-oxadiazol-5-yl)-1-methyl-1H-pyrimidin-2-one]
24 | 6.82 | 8.70 |  | Cc1cc(-c2nc(C3(c4ccc(-c5cnc(N)nc5)cc4)CCC3)no2)ccc1O [Example 99, 4-(3-{1-[4-(2-Amino-pyrimidin-5-yl)-phenyl]-cyclobutyl}-1,2,4-oxadiazol-5-yl)-2-methyl-phenol]
25 |  | 8.46 | < 5.30 | Nc1ncc(-c2ccc(C3(c4noc(-c5cnc(N6CCNCC6)cn5)n4)CCC3)cc2)cn1 [Example 124, 5-(4-{1-[5-(3,4,5,6-Tetrahydro-1H-1,2′-bipyrazinyl-5′-yl)-1,2,4-oxadiazol-3-yl]-cyclobutyl}-phenyl)-pyrimidin-2-ylamine]
26 | 6.30 | 7.51 |  | Nc1ncc(-c2ccc(C3(c4noc(N5CCC[C@@H]5CO)n4)CCC3)cc2)cn1 [Example 289, [(R)-1-(3-{1-[4-(2-Amino-pyrimidin-5-yl)-phenyl]-cyclobutyl}-[1,2,4]oxadiazol-5-yl)-pyrrolidin-2-yl]-methanol]
27 | 6.47 | 8.22 |  | Nc1ncc(-c2ccc(C3(c4noc(-c5cncnc5)n4)CCC3)cc2)cn1 [Example 159, 5-{4-[1-(5-Pyrimidin-5-yl-1,2,4-oxadiazol-3-yl)-cyclobutyl]-phenyl}-pyrimidin-2-ylamine]
28 | 6.48 | 7.66 |  | CN(CC1CCOCC1)c1nc(C2(c3ccc(-c4cnc(N)nc4)cc3)CCC2)no1 [Example 292, 5-[4-(1-{5-[Methyl-(tetrahydro-pyran-4-ylmethyl)-amino]-[1,2,4]oxadiazol-3-yl}-cyclobutyl)-phenyl]-pyrimidin-2-ylamine]
29 | 6.82 | 8.96 |  | Cc1n[nH]cc1-c1nc(C2(c3ccc(-c4cnc(N)nc4)cc3)CCC2)no1 [Example 6, 5-(4-{1-[5-(3-Methyl-1H-pyrazol-4-yl)-1,2,4-oxadiazol-3-yl]-cyclobutyl}-phenyl)-pyrimidin-2-ylamine]
